The record followed here is patent EP4117701B1, “COMPOSITIONS FOR THE PREVENTION AND/OR TREATMENT OF BENIGN PROSTATIC HYPERTROPHY (BPH)” (IDI Integratori Dietetici Italiani S.r.l., priority 2020, dated 2021).

One data set is described as follows: in vitro. The data set is classed as cell-based. The following applies: human, lncap cells. The protocol: The cytotoxic activity of the considered plant extracts was evaluated in a human tumour prostate cell line (LNCaP). […] The treatment was prolonged for 6 hours, period of time corresponding to the overall duration of the pre-treatment and of post-treatment thereto the cells were subjected for the subsequent evaluation of the anti-inflammatory activity. At the end of the incubation period, the vitality of the prostate cells was evaluated by using the assay MTS, based upon the reduction of the compound MTS tetrazolium by the vital cells to generate a form of coloured formazan, which can be quantified by measuring the absorbance at 490-500 nm thereof.

The test system of data set [1] is human prostate cell line (LNCaP). Description: Cytotoxicity of plant extracts, MTS assay, 24 hours. It is filed as cell-based. The following applies: extracts 0 to 1000 µg/mL (TEUPOL10 0 to 1500 µg/mL), Dutasteride 0 to 7.93 µg/mL. The protocol:
The cytotoxic activity of considered plant extracts was evaluated in a human prostate cell line (LNCaP). The prostate cells were treated with growing concentrations of the plant extracts (from 0 to 1000 µg/mL for the extract of B. Serrata and S. Repens, from 0 to 1500 µg/mL for TEUPOL10) and of the positive control Dutasteride (from 0 µg/mL to 7.93 µg/mL). The treatment was prolonged for 24 hours, time corresponding to the overall duration of the experiments related to PSA and to 5-α-reductase. At the end of the incubation period, the vitality of the prostate cells was evaluated by using the assay MTS, based upon the reduction of the compound MTS tetrazolium by the vital cells to generate a coloured form, which can be quantified by measuring the absorbance thereof at 490-500 nm.
Background: Tetrazolium dyes change colour on reduction, which living cells bring about.

As for `O=C(O)Cc1ccccc1Nc1c(Cl)cccc1Cl` [Diclofenac], the MCC at 6 h in the data set “in vitro” came to 80 µg/mL. In the case of `C[C@]12C=CC(=O)N[C@@H]1CC[C@@H]1[C@@H]2CC[C@]2(C)[C@@H](C(=O)Nc3cc(C(F)(F)F)ccc3C(F)(F)F)CC[C@@H]12` [Dutasteride], the “adverse effect on vitality of the prostate cells” value in data set [1] is on record as “No adverse effect”.
